Consider 26 molecules from ChEMBL document CHEMBL3259549, “Unraveling the structure-activity relationship of tomatidine, a steroid alkaloid with unique antibiotic properties against persistent forms of Staphylococcus aureus” (2014).

Converted amounts (≈) assume the structure as drawn.

In assay [1] the test system is Staphylococcus aureus. Briefly: Antimicrobial activity against hemB-deficient Staphylococcus aureus Newbould after 48 hrs by broth microdilution method. The format is functional.
The test system of assay [2] is Staphylococcus aureus. Briefly: microbe, parasite or virus in culture. The note with it: ATCC 29213, 48 h.
Description: Antimicrobial activity against Staphylococcus aureus ATCC 29213 after 48 hrs by broth microdilution method
The test system of assay [3] is Staphylococcus aureus. Briefly: MIC fold reduction, ratio of gentamicin MIC for Staphylococcus aureus ATCC 29213 to gentamicin MIC for Staphylococcus aureus ATCC 29213 in presence of compound.

For `C[C@@H]1CC[C@@]2(NC1)O[C@H]1C[C@H]3[C@@H]4CC[C@H]5C[C@@H](O)CC[C@]5(C)[C@H]4CC[C@]3(C)[C@H]1[C@@H]2C`, the results for the MIC in assay [1] and in assay [2] were more than 8 µg/mL and more than 64 µg/mL, respectively. For the same molecule, the “gentamicin MIC fold reduction” value in assay [3] was 1.

With `C[C@H]1CC[C@]2(NC1)O[C@H]1C[C@H]3[C@@H]4CC[C@H]5CC(N)CC[C@]5(C)[C@H]4CC[C@]3(C)[C@H]1[C@@H]2C.Cl.Cl` (some centres undefined), the MIC in assay [1] came out at 1 µg/mL; in assay [2], 32 µg/mL. In addition, the “gentamicin MIC fold reduction” value in assay [3] worked out at 8.

As for `CC(NCCCCN)[C@H]1CC[C@H]2[C@@H]3CC[C@H]4C[C@@H](O)CC[C@]4(C)[C@H]3CC[C@]12C.Cl.Cl` (some centres undefined), the figures for the MIC in assay [1] and in assay [2] were more than 8 µg/mL and 32 µg/mL, respectively. In assay [3], the “gentamicin MIC fold reduction” value turned out to be 2.

As for `CC(N)[C@H]1CC[C@H]2[C@@H]3CC[C@H]4C[C@@H](O)CC[C@]4(C)[C@H]3CC[C@]12C.Cl` (some centres undefined), the MIC in assay [1] is more than 8 µg/mL; in assay [2], 64 µg/mL. Also, in assay [3], the “gentamicin MIC fold reduction” value is 2.

Consider `C[C@H]1CC[C@]2(NC1)O[C@H]1C[C@H]3[C@@H]4CC[C@H]5C[C@H](O)CC[C@]5(C)[C@H]4CC[C@]3(C)[C@H]1[C@@H]2C.Cl`, for which the MIC in assay [1] is 4 µg/mL; in assay [2] it was more than 64 µg/mL. Besides, the “gentamicin MIC fold reduction” value in assay [3] came out at 4.

Consider `C[C@H]1CC[C@]2(NC1)O[C@H]1C[C@H]3[C@@H]4CC[C@H]5CC(=O)CC[C@]5(C)[C@H]4CC[C@]3(C)[C@H]1[C@@H]2C.Cl`, for which the results for the MIC in assay [1] and in assay [2] were 0.25 µg/mL and more than 64 µg/mL, respectively. The “gentamicin MIC fold reduction” value in assay [3] was 8.

Regarding `CCCCNC(C)[C@H]1[C@@H](O)C[C@H]2[C@@H]3CC[C@H]4C[C@@H](O)CC[C@]4(C)[C@H]3CC[C@@]21C.Cl` (some centres undefined), the results for the MIC in assay [1] and in assay [2] were more than 8 µg/mL and more than 64 µg/mL, respectively. Also, the “gentamicin MIC fold reduction” value in assay [3] stood at 2.

For the molecule `CN(C)CC(=O)[C@H]1CC[C@H]2[C@@H]3CC[C@H]4C[C@@H](O)CC[C@]4(C)[C@H]3CC[C@]12C`, the MIC in assay [1] was more than 8 µg/mL; in assay [2], more than 64 µg/mL. In assay [3], the “gentamicin MIC fold reduction” value came out at 2.

As for `CC(NCCCN(C)C)[C@H]1[C@@H](O)C[C@H]2[C@@H]3CC[C@H]4C[C@@H](O)CC[C@]4(C)[C@H]3CC[C@@]21C` (some centres undefined), the MIC is more than 8 µg/mL in assay [1] and more than 64 µg/mL in assay [2]. In assay [3], the “gentamicin MIC fold reduction” value was found to be 2.

Turning to `C[C@H]1CC[C@]2(NC1)O[C@H]1C[C@H]3[C@@H]4CC[C@H]5CC(NCCCCN)CC[C@]5(C)[C@H]4CC[C@]3(C)[C@H]1[C@@H]2C.Cl.Cl.Cl` (some centres undefined), the MIC in assay [1] was 0.5 µg/mL; in assay [2], 16 µg/mL. Also, the “gentamicin MIC fold reduction” value in assay [3] is recorded as 4.

`C[C@H]1CC[C@]2(NC1)O[C@H]1C[C@H]3[C@@H]4CC[C@H]5C[C@@H](O)CC[C@]5(C)[C@H]4CC[C@]3(C)[C@H]1[C@@H]2C` [TOMATIDINE] displayed an MIC in assay [1] of 0.12 µg/mL (≈ 0.289 µM).

In the case of `C[C@H]1CCC([C@@H](C)[C@H]2[C@@H](O)C[C@H]3[C@@H]4CC[C@H]5C[C@@H](O)CC[C@]5(C)[C@H]4CC[C@]23C)NC1.Cl` (some centres undefined), the results for the MIC in assay [1] and in assay [2] were 4 µg/mL and 32 µg/mL, respectively. Moreover, in assay [3], the “gentamicin MIC fold reduction” value is listed as 4.

Take `C[C@H]1CC[C@]2(NC1)O[C@H]1C[C@H]3[C@@H]4CC[C@H]5CC(NCCCCCCN)CC[C@]5(C)[C@H]4CC[C@]3(C)[C@H]1[C@@H]2C.Cl.Cl.Cl` (some centres undefined): the results for the MIC in assay [1] and in assay [2] were 1 µg/mL and 32 µg/mL, respectively. The “gentamicin MIC fold reduction” value in assay [3] was 2.

As for `CC(=O)NC[C@@H](C)CCC1=C(C)[C@H]2[C@H](C[C@H]3[C@@H]4CC[C@H]5C[C@@H](O)CC[C@]5(C)[C@H]4CC[C@@]32C)O1`, the MIC in assay [1] was more than 8 µg/mL; in assay [2], more than 64 µg/mL. Also, the “gentamicin MIC fold reduction” value in assay [3] is reported as 1.

In the case of `C[C@H]1CC[C@]2(NC1)O[C@H]1C[C@H]3[C@@H]4CC[C@H]5C[C@@H](O)CC[C@]5(C)[C@H]4CC[C@]3(C)[C@H]1[C@@H]2C.Cl`, the results for the MIC in assay [1] and in assay [2] were 0.06 µg/mL and more than 64 µg/mL, respectively. Moreover, the “gentamicin MIC fold reduction” value in assay [3] is 8.

For the molecule `CC(NCCCN)[C@H]1CC[C@H]2[C@@H]3CC[C@H]4C[C@@H](O)CC[C@]4(C)[C@H]3CC[C@]12C.Cl.Cl` (some centres undefined), the MIC in assay [1] was more than 8 µg/mL; in assay [2], 32 µg/mL. For the same molecule, in assay [3], the “gentamicin MIC fold reduction” value is on record as 2.

As for `CC(=O)NC[C@@H](C)CCC(O)[C@@H](C)[C@H]1[C@@H](O)C[C@H]2[C@@H]3CC[C@H]4C[C@@H](O)CC[C@]4(C)[C@H]3CC[C@]12C` (some centres undefined), the MIC in assay [1] was more than 8 µg/mL; in assay [2] it was more than 64 µg/mL. In addition, the “gentamicin MIC fold reduction” value in assay [3] came to 1.

`C[C@H]1CC[C@@]2(O[C@H]3C[C@H]4[C@@H]5CC[C@H]6C[C@@H](O)CC[C@]6(C)[C@H]5CC[C@]4(C)[C@H]3[C@@H]2C)N(C=O)C1`: the MIC in assay [1] is more than 8 µg/mL; in assay [2] it was more than 64 µg/mL. In assay [3], the “gentamicin MIC fold reduction” value is 2.

In the case of `C=CCO[C@H]1CC[C@@]2(C)[C@@H](CC[C@@H]3[C@@H]2CC[C@]2(C)[C@@H]4[C@H](C[C@@H]32)O[C@@]2(CC[C@H](C)CN2)[C@H]4C)C1.Cl`, the MIC was found to be 0.25 µg/mL in assay [1] and 16 µg/mL in assay [2]. In addition, in assay [3], the “gentamicin MIC fold reduction” value was 8.

As for `C[C@]12CC[C@H](O)C[C@@H]1CC[C@@H]1[C@@H]2CC[C@]2(C)[C@@H](C(=O)CN3CCCCC3)CC[C@@H]12`, the results for the MIC in assay [1] and in assay [2] were more than 8 µg/mL and more than 64 µg/mL, respectively. Besides, the “gentamicin MIC fold reduction” value in assay [3] was 2.

Consider `CC(=O)NC[C@@H](C)CCC1O[C@H]2C[C@H]3[C@@H]4CC[C@H]5C[C@@H](O)CC[C@]5(C)[C@H]4CC[C@]3(C)[C@H]2[C@@H]1C` (some centres undefined), for which the figures for the MIC in assay [1] and in assay [2] were more than 8 µg/mL and more than 64 µg/mL, respectively. Moreover, the “gentamicin MIC fold reduction” value in assay [3] is 1.

Consider `C[C@H]1CC[C@]2(NC1)O[C@H]1C[C@H]3[C@@H]4CC[C@H]5CC(NCCN)CC[C@]5(C)[C@H]4CC[C@]3(C)[C@H]1[C@@H]2C.Cl.Cl.Cl` (some centres undefined), for which the MIC was determined as 0.5 µg/mL in assay [1] and 8 µg/mL in assay [2]. Also, the “gentamicin MIC fold reduction” value in assay [3] is given as 4.

`CC(NCCN)[C@H]1CC[C@H]2[C@@H]3CC[C@H]4C[C@@H](O)CC[C@]4(C)[C@H]3CC[C@]12C.Cl.Cl` (some centres undefined): the MIC in assay [1] is more than 8 µg/mL; in assay [2], 32 µg/mL. Also, the “gentamicin MIC fold reduction” value in assay [3] is 2.

Molecule GENTAMICIN showed an MIC in assay [1] of 0.03 µg/mL.

Turning to `CC(C)CCNC(C)[C@H]1CC[C@H]2[C@@H]3CC[C@H]4C[C@@H](O)CC[C@]4(C)[C@H]3CC[C@]12C.Cl` (some centres undefined), the MIC is more than 8 µg/mL in assay [1] and more than 64 µg/mL in assay [2]. The “gentamicin MIC fold reduction” value in assay [3] was 4.

`CCCCNC(C)[C@H]1CC[C@H]2[C@@H]3CC[C@H]4C[C@@H](O)CC[C@]4(C)[C@H]3CC[C@]12C.Cl` (some centres undefined): the MIC stood at 4 µg/mL in assay [1] and 64 µg/mL in assay [2]. Also, the “gentamicin MIC fold reduction” value in assay [3] is listed as 8.
